≈ marks a conversion by molar mass, not a printed value. Structures can show the parent of a compound that is named as a salt.
What was measured:
[1] = system: Staphylococcus aureus UC9213 or Streptococcus species; test: Antimicrobial activity in vivo, Murine Assay (mice infected intraperitoneally with bacteria; ED50 from survival over six days); conditions: 144 h, female mice, treatment one hour and five hours after infection
Protocol: Antimicrobial activity was tested in vivo using the Murine Assay procedure. Groups of female mice (six mice of 18-20 grams each) were injected intraperitoneally with bacteria which were thawed just prior to use and suspended in brain heart infusion with 4% brewers yeast UC9213 (Staphylococcus aureus) or brain heart infusion (Streptococcus species). Antibiotic treatment at six dose levels per drug was administered one hour and five hours after infection by either oral intubation or subcutaneous ("subcut.") routes. Survival was observed daily for six days. ED50 values based on mortality ratios were calculated using probit analysis. The subject compounds were compared against a well-known antimicobial (Vancomycin) as a control.

[2] = Aqueous solubility (pH 7, phosphate buffer); type: physicochemical

Row | SMILES | solubility [2] [µg/mL] | ED50 ([1]; oral) [mg/kg] | ED50 ([1]; sc, subcut.) [mg/kg]
1 | CC(=O)NC[C@H]1CN(c2cc(F)c(N3CCN(C(=O)COC(C)=O)CC3)c(F)c2)C(=O)O1 [Example 14, Acetic acid, 2-(4-(4-(5-((acetylamino)methyl)-2-oxo-3-oxazolidinyl)-2,6-difluorophenyl)-1-piperazinyl)-2-oxoethyl ester, (S)] | 1600 (≈ 3.52 mM) | 3 | 
2 | COCCOC(=O)OCC(=O)N1CCN(c2ccc(N3C[C@H](CNC(C)=O)OC3=O)cc2F)CC1 [Example 6, Carbonic acid, 2-[4-[4-[5-[(acetylamino)methyl]-2-oxo-3-oxazolidinyl]-2-fluorophenyl]-1-piperazinyl]-2-oxoethyl ester-2-methoxyethyl ester, (S)] | 2900 (≈ 5.84 mM) | 2 | 2
3 | CC(=O)NC[C@H]1CN(c2ccc(N3CCN(C(=O)COC(=O)CCC(=O)O)CC3)c(F)c2)C(=O)O1 [Example 17] | 28000 (≈ 56.6 mM) | 5 | 2
4 | CC(=O)NC[C@H]1CN(c2ccc(N3CCN(C(=O)COC(=O)CN4CCN(C)CC4)CC3)c(F)c2)C(=O)O1 [Example 13, (4-Methyl-1-piperazinyl)acetic acid, 2-[4-[4-[5-[(acetylamino)methyl]-2-oxo-3-oxazolidinyl]-2-fluorophenyl]-1-piperazinyl]-2-oxoethyl ester, (S)-] | 79100 (≈ 148 mM) | > 20 | > 20
5 | CC(=O)NC[C@H]1CN(c2ccc(N3CCN(C(=O)COC(=O)CCN(C)C)CC3)c(F)c2)C(=O)O1 [Example 11, 3-(Dimethylamino)propanoic acid, 2-[4-[4-[5-[(acetylamino)methyl]-2-oxo-3-oxazolidinyl]-2-fluorophenyl]-1-piperazinyl]-2-oxoethyl ester, (S)-] |  | 8 | 8
6 | CC(=O)NC[C@H]1CN(c2cc(F)c(N3CCN(C(=O)COC(=O)CCC(=O)O)CC3)c(F)c2)C(=O)O1 [Example 16, Succinic acid, 2-(4-(4-(5-((acetylamino)methyl)-2-oxo-3-oxazolidinyl)-2,6-difluorophenyl)-1-piperazinyl)-2-oxoethyl monoester, sodium salt, (S)] |  | 4 | 
7 | CC(=O)NC[C@H]1CN(c2ccc(N3CCN(C(=O)COC(=O)c4cccnc4)CC3)c(F)c2)C(=O)O1 [Example 2, Nicotinic acid, 2-[4-[4-[5-[(acetylamino)methyl]-2-oxo-3-oxazolidinyl]-2-fluorophenyl]-1-piperazinyl]-2-oxoethyl ester, (S)-] | 300 (≈ 0.601 mM) | 9 | 15
8 | CC(=O)CCC(=O)OCC(=O)N1CCN(c2c(F)cc(N3C[C@H](CNC(C)=O)OC3=O)cc2F)CC1 [Example 18, 4-Oxo-valeric acid, 2-(4-(4-(5-((acetylamino)methyl)-2-oxo-3-oxazolidinyl)-2,6-difluorophenyl)-1-piperazinyl)-2-oxoethyl ester, (S)] | 1200 (≈ 2.35 mM) | 14 | > 20
9 | CC(=O)NC[C@H]1CN(c2cc(F)c(N3CCN(C(=O)COC(=O)c4cccnc4)CC3)c(F)c2)C(=O)O1 [Example 3, Nicotinic acid, 2-[4-[4-[5-[(acetylamino)methyl]-2-oxo-3-oxazolidinyl]-2,6-difluorophenyl]-1-piperazinyl]-2-oxoethyl ester, (S)-6] | 50 (≈ 0.0966 mM) | 16 | 8
10 | CC(=O)NC[C@H]1CN(c2cc(F)c(N3CCN(C(=O)COC(=O)CN(C)C)CC3)c(F)c2)C(=O)O1 [Example 10, Glycine, N,N-dimethyl-, 2-[4-[4-[5-[(acetylamino)methyl]-2-oxo-3-oxazolidinyl]-2,6-difluorophenyl]-1-piperazinyl]-2-oxoethyl ester, (S)-] | 4200 (≈ 8.44 mM) | 1 | 2
11 | CC(=O)NC[C@H]1CN(c2cc(F)c(N3CCN(C(=O)COC(=O)c4ccc(N(C)C)cc4)CC3)c(F)c2)C(=O)O1 [Example 8, 4-dimethylaminobenzoic acid, 2-[4-[4-[5-[(acetylamino)methyl]-2-oxo-3-oxazolidinyl]-2,6-difluorophenyl]-1-piperazinyl]-2-oxoethyl ester, (S)-] | 10 (≈ 0.0179 mM) | 10 | 6
12 | CC(=O)NC[C@H]1CN(c2ccc(N3CCN(C(=O)COC(=O)CCN4CCOCC4)CC3)c(F)c2)C(=O)O1 [Example 1, 3-(4-Morpholinyl)propionic acid, 2-(4-(4-(5-((acetylamino)methyl)-2-oxo-3-oxazolidinyl)-2-fluorophenyl)-1-piperazinyl)-2-oxoethyl ester, (S)] | 36000 (≈ 67.2 mM) | 5 | 4
13 | CC(=O)NC[C@H]1CN(c2ccc(N3CCN(C(=O)COC(=O)CN(C)C)CC3)c(F)c2)C(=O)O1 [Example 9, Glycine, N,N-dimethyl-, 2-[4-[4-[5-[(acetylamino)methyl]-2-oxo-oxazolidinyl]-2-fluorophenyl]-1-piperazinyl]-2-oxoethyl ester, (S)-] | 150000 (≈ 313 mM) | 2 | 3
14 | CC(=O)NC[C@H]1CN(c2ccc(N3CCN(C(=O)COC(=O)n4ccnc4)CC3)c(F)c2)C(=O)O1 [Example 4, 1H-imidazole-1-carboxylic acid, 2-[4-[4-[5-[(acetylamino)methyl]-2-oxo-3-oxazolidinyl]-2-fluorophenyl]-1-piperazinyl]-2-oxoethyl ester, (S)-] | 1400 (≈ 2.87 mM) | 2 | 2
15 | CC(=O)NC[C@H]1CN(c2cc(F)c(N3CCN(C(=O)COC(=O)CCC(=O)O)CC3)c(F)c2)C(=O)O1 [Example 15, Succinic acid, 2-(4-(4-(5-((acetylamino)methyl)-2-oxo-3-oxazolidinyl)-2,6-difluorophenyl)-1-piperazinyl)-2-oxoethyl monoester, (S)] | 12300 (≈ 24 mM) |  | 
16 | CC(=O)NC[C@H]1CN(c2cc(F)c(N3CCN(C(=O)COC(=O)n4ccnc4)CC3)c(F)c2)C(=O)O1 [Example 5, 1H-imidazole-1-carboxylic acid, 2-[4-[4-[5-[(acetylamino)methyl]-2-oxo-3-oxazolidinyl]-2,6-difluorophenyl]-1-piperazinyl]-2-oxoethyl ester, (S)-] |  | 7 | 5
17 | CC(=O)NC[C@H]1CN(c2cc(F)c(N3CCN(C(=O)COC(=O)CO)CC3)c(F)c2)C(=O)O1 [Example 24, Hydroxyacetic acid, 2-[4-[4-[5-[(acetylamino)methyl]-2-oxo-3-oxazolidinyl]-2,6-difluorophenyl]-1-piperazinyl]-2-oxoethyl ester,] |  | 1 | 

Further lines, with some results ahead:

Row | solubility [2] [µg/mL] | SMILES | ED50 ([1]; oral) [mg/kg] | ED50 ([1]; sc, subcut.) [mg/kg]
18 | 6400 (≈ 13.7 mM) | COCC(=O)OCC(=O)N1CCN(c2ccc(N3C[C@H](CNC(C)=O)OC3=O)cc2F)CC1 [Example 25, Methoxyacetic acid, 2-(4-(4-(5-((acetylamino)methyl)-2-oxo3-oxazolidinyl)-2-fluorophenyl)-1-piperazinyl)-2-oxoethyl ester, (S)] | 8 | 15
19 | 25700 (≈ 54.2 mM) | CC(=O)NC[C@H]1CN(c2ccc(N3CCN(C(=O)COP(=O)(O)O)CC3)c(F)c2)C(=O)O1 [Example 20, Phosphoric acid, 2-(4-(4-(5-((acetylamino)methyl)-2-oxo-3-oxazolidinyl)-2-fluorophenyl)-1-piperazinyl)-2-oxoethyl ester, (S)] | 6 | 4
20 | 4200 (≈ 9.28 mM) | CC(=O)NC[C@H]1CN(c2ccc(N3CCN(C(=O)COC(=O)CO)CC3)c(F)c2)C(=O)O1 [Example 23, Hydroxyacetic acid, 2-[4-[4-[5[(acetylamino)methyl]-2-oxo-3-oxazolidinyl]-2-fluorophenyl]-1-piperazinyl]-2-oxoethyl ester, (S)] | 2 | 1
21 | 8200 (≈ 14.8 mM) | CC(=O)NC[C@H]1CN(c2cc(F)c(N3CCN(C(=O)COC(=O)CCN4CCOCC4)CC3)c(F)c2)C(=O)O1 [Example 26, 3-(N-morpholinyl)propionic acid, 2-(4-(4-(5-((acetylamino)methyl)-2-oxo-3-oxaxzolidinyl)-2,6-difluorophenyl)-1-piperazinyl)-2-oxoethyl ester, (S)] | 6 | 3
22 | 30 (≈ 0.0584 mM) | CC(=O)NC[C@H]1CN(c2ccc(N3CCN(C(=O)COC(=O)c4ccc(N)cc4)CC3)c(F)c2)C(=O)O1 [Example 21, 4-aminobenzoic acid, 2-[4-[4-[5-[(acetylamino)methyl]-2-oxo-3-oxazolidinyl]-2-fluorophenyl]-1-piperazinyl]-2-oxoethyl ester, (S)-] | 8 | 13
23 | 90 (≈ 0.15 mM) | CC(=O)NC[C@H]1CN(c2ccc(N3CCN(C(=O)COC(=O)c4ccc(NC(=O)CN(C)C)cc4)CC3)c(F)c2)C(=O)O1 [Example 28, 4-N-(N,N-dimethylglycinyl)aminobenzoic acid, 2-[4-[4-[5-[(acetylamino)methyl]-2-oxo-3-oxazolidinyl]-2-fluorophenyl]-1-piperazinyl]-2-oxoethyl ester, (S)-] |  | 
24 | 55300 (≈ 106 mM) | CC(=O)NC[C@H]1CN(c2ccc(N3CCN(C(=O)COC(=O)CN4CCOCC4)CC3)c(F)c2)C(=O)O1 [Example 27, (4-morpholinyl)acetic acid, 2-(4-(4-(5-((acetylamino)methyl)-2-oxo-3-oxazolidinyl)-2-fluorophenyl)-1-piperazinyl)-2-oxoethyl ester, (S)] | 6 | 
25 | 2290 (≈ 4.65 mM) | CC(=O)CCC(=O)OCC(=O)N1CCN(c2ccc(N3C[C@H](CNC(C)=O)OC3=O)cc2F)CC1 [Example 19, 4-Oxo-valeric acid, 2-(4-(4-(5-((acetylamino)methyl)-2-oxo-3-oxazolidinyl)-2-fluorophenyl)-1-piperazinyl)-2-oxoethyl monoester, (S)] |  | 

From US5652238A, “Esters of substituted-hydroxyacetyl piperazine phenyl oxazolidinones” (Pharmacia & Upjohn Company, priority 1996, dated 1997)
